According to a melting point compilation (Tetko et al.; mined from patent text by program, amines drawn as free bases though some values may be those of a salt):

Row | Compound | melting point [°C]
1 | Cn1ncc(C(=O)O)c1C(=O)Nc1ccc2nc(-c3ccccc3)nn2c1 | 259
2 | CC(C)(C)OC(=O)NCCNC(=O)c1ccc(CO)cc1 | 117 to 119
3 | CCc1cccc(CC)c1-n1c(C(=O)O)cnc1SCc1ccccc1 | 152 to 154
4 | O=C(N[C@@H](Cc1ccc(OCc2ccccc2)cc1)C(=O)O)c1cn2cc(/C=C/c3ccc(Cl)cc3)ccc2n1 | 267 to 270
5 | CCOC(=O)c1ccc(-c2ccc3c(c2)OCO3)cc1 | 92.5 to 93.5
6 | N#Cc1ccc(OCc2ccc(CCc3ccncc3)cc2)cc1 | 139 to 140
7 | COP(=O)(CC(=O)[C@@H]1COC(C)(C)N1C(=O)OC(C)(C)C)OC | 86 to 87
8 | Cc1cc(C(C)C)cc(C)c1CCl | 63 to 65
9 | O=c1oc(-c2ccccc2)cc(O)c1Cc1cccnc1SCc1ccccc1 | 103 to 106
10 | C=CCN(c1ccc(OC)cc1)S(=O)(=O)c1c(F)c(F)c(F)c(F)c1F | 59 to 60
11 | CCOC(=O)N(C)CCCC1=CC2(CCCC2)c2ccccc21 | 90
12 | O=C1NC(=S)SC1=Cc1ccc(Oc2ccccc2)cc1 | 195 to 200
13 | OCCNCCNCc1ccc(-c2cc3ncnc(Nc4ccc5[nH]ccc5c4)c3s2)cc1 | 78 to 95
14 | N#Cc1ccc(C(=C2CCCCCC2)c2nc[nH]n2)cc1 | 79 to 80
15 | COc1ccc2cc(C(C)C(=O)ON(C(N)=O)C(C)c3cc4ccccc4s3)ccc2c1 (configuration not stated) | 62 to 70
16 | NC1=NN(c2ccccn2)C(c2ccccc2)C1 (configuration not stated) | 203 to 206
17 | CCC(CC)O[C@@H]1C=C(C(=O)O)C[C@H](CC(O)CN=[N+]=[N-])[C@H]1NC(C)=O (some centres not stated) | 126 to 127
18 | CCOc1ccc(S(=O)(=O)N2CCN(C)CC2)cc1C#N | 130 to 131
19 | CCCCCc1noc(-c2ccc(N3CCN(C(=O)c4ccccc4C(F)(F)F)CC3)nn2)n1 | 164
20 | O=C(O)COc1cccc(CCc2nc(-c3cccs3)c(-c3cccs3)o2)c1 | 106 to 107
21 | CCOCc1nc2c(N)nc3ccccc3c2n1NCCCNC(C)=O | 178 to 181
22 | C=CC(=O)CC1CN=C(c2cc3cccc(N(C)S(=O)(=O)c4cccs4)c3[nH]2)S1 (configuration not stated) | 157 to 158
23 | CC(C)C(NC(=O)c1ccc(-c2ccccc2)cc1)C(=O)O (configuration not stated) | 168
24 | NC(=O)Cc1ccc(-c2nc3ccccc3o2)cc1 | 251 to 255

Row | Compound | melting point [°C]
25 | COc1ccc(S(=O)(=O)Nc2cccnc2Nc2ccccc2)cc1OC | 171 to 172
26 | CN(C)CC1CCCCN1C(=O)c1ccc(-c2[nH]nc3c2C(=O)c2c(NC(=O)NN4CCOCC4)cccc2-3)s1 (configuration not stated) | > 300
27 | S=C(N/N=C/c1cccnc1)Nc1ccccc1 | 208 to 210
28 | O=C(O)COCCOc1c(-c2cccc(C(F)(F)F)c2)cc(C(=O)NCCCCCCc2ccccc2)cc1-c1cccc(C(F)(F)F)c1 | 74.7 to 75.9
29 | C#Cc1c(C#N)nn(-c2c(Cl)cc(OC(F)(F)F)cc2Cl)c1N | 176
30 | BrCc1nc2cc(Br)ccc2s1 | 107
31 | O=C(O)COc1ccc(OCCCCc2ccccc2)cc1 | 116 to 117
32 | COc1cccc2c1CCC(C#N)=C2 | 47 to 49
33 | CCC(=CC(CNC(C)=O)=NO)C(C)[N+](=O)[O-] (configuration not stated) | 124 to 125
34 | CCCNC(=O)C1(CCCc2ccccc2N2Cc3ccccc3C2=O)c2ccccc2-c2ccccc21 | 122 to 125
35 | O=C1N[C@@H](C=Cc2ccccc2)[C@H]1O | 143 to 144
36 | C=CC(C)(C)C(=O)C(Oc1ccc(Cl)cc1)n1ccnc1 (configuration not stated) | 72 to 74
37 | CC(C)C(S)C(=O)NCC(=O)O (configuration not stated) | 118 to 119
38 | O=C(C=Cc1ccco1)NCCCCCC(=O)NO | 151 to 152
39 | COC(=O)NCc1cccc(-c2ccccc2)c1 | 49 to 52
40 | CC(F)(F)c1cccc(C[C@H](N)[C@H](O)c2ccc(F)cc2)c1 (racemic) | 101 to 102
41 | CNC(=C[N+](=O)[O-])NCCSCc1cc(CN2CCCC2)cs1 | 109 to 111
42 | COc1ccc2cccc(CC(=O)O)c2c1 | 154 to 156
43 | Cc1cccc(C)c1C(=O)OC1CCCCC1=O (configuration not stated) | 82 to 83
44 | COc1ccc(C2=NN(Cc3ccccc3O)C(=O)[C@H]3CCCC[C@@H]23)cc1OC (relative stereo) | 132 to 133
45 | CNC1=Nc2ccc(Br)cc2C(c2ccccc2)=NC1 | 234 to 235
46 | CCOc1cc2c(cc1OC)C(c1ccc(C(=O)N(C(C)C)C(C)C)cc1)=NC1CC[N+](C)([O-])CC21 (configuration not stated) | 195 to 198
47 | COc1ccc(COC2CCCn3c2c(-c2ccccc2)c2cc(C)c(C)cc2c3=O)cc1 (configuration not stated) | 145 to 146
48 | Cc1ccc(OCc2ccc(OCc3nc(-c4ccccc4)oc3C)cc2)c(CC(=O)O)c1 | 115 to 116

Row | Compound | melting point [°C]
49 | COc1cc2cc(C(=O)N3CC(CCl)c4c3cc(NCCNC(=O)OC(C)(C)C)c3ccccc43)[nH]c2c(OC)c1OC (configuration not stated) | 110 to 115
50 | C#CCOc1nc(N)nc(-c2ccccc2)c1-c1ccc(=O)n(C(C)C)n1 | 145 to 147
51 | CCOC(=O)C1=C(C)NC(c2cncs2)=NC1c1ccc(F)cc1Cl (configuration not stated) | 121 to 125
52 | CCOC(=O)c1nc2c(C)nn(CC)c2nc1OCC | 81 to 82
53 | O=C1Cc2cc(Cl)cc(Oc3ccccc3F)c2N1 | 204 to 207
54 | O=C1Nc2ccc(I)cc2C1=NNC(=O)c1ccc(O[C@@H](Cc2ccccc2)C(=O)OCc2ccccc2)cc1 | 194
55 | CCSc1cc(C)nc(SCC)c1NC(=O)CCCSc1nc2c(C)c(Cl)cc(C(C)C)c2o1 | 122 to 123
56 | CCCCCn1c2ccc(C(=O)NC34CC5CC(CC(C5)C3)C4)cc2c2ccc(OC)cc21 | 141 to 142
57 | COC(=O)/C=C/c1ccc(CC(C)NCC(O)c2cccc(C(F)(F)F)c2)cc1 (configuration not stated) | 80 to 83
58 | COC(C)c1ccc(OCCCN2CCC(c3noc4cc(F)ccc34)CC2)c(O)c1 (configuration not stated) | 98 to 100
59 | CCc1[nH]n(C2CCCC2)c2nc(-c3ccc(OC)c(OCCN4CCOCC4)c3)nc(=O)c1-2 | 205 to 206
60 | Nc1ccc(-c2noc(-c3cnn4c(C(F)(F)F)cc(-c5ccc(Cl)cc5)nc34)n2)cn1 | 253
61 | NC(=S)c1cc(Cl)cc2cc(Cl)cnc12 | 226
62 | CCN(CC)CCNC(=O)c1ccc(I)c2cc3ccccc3nc12 | 103 to 105
63 | O=C(c1ccccc1)c1nc(-c2ccncc2)cs1 | 135 to 136
64 | N#Cc1cnc(N)nc1-c1ccc(Cl)cc1C1(c2ccccc2F)OCC(CCl)O1 (configuration not stated) | 184 to 191
65 | O=S1C(Cl)=C(Cl)CN1C1CCCCC1 (configuration not stated) | 115 to 116
66 | COC(=O)CCc1oc(=O)[nH]c1-c1ccc(C(F)(F)F)cc1 | 156 to 157
67 | Nc1nc2ccc(SSc3ccc4nc(N)[nH]c4c3)cc2[nH]1 | 245
68 | COc1cccc(Oc2cccc(-c3c(O)c4ccc(Cl)cc4[nH]c3=O)c2)c1 | 268 to 270
69 | COC1OC(=O)CC(C)(C)C1O (configuration not stated) | 72
70 | COc1cc(CCN2CCC(NC(=O)c3ccccc3)CC2)cc(OC)c1OC | 193 to 194
71 | OC1CCc2c(Cl)cc(Cl)c(I)c21 (configuration not stated) | 95 to 100
72 | CCCCn1c(=O)c(N)c(C)n(CCC(C)C)c1=O | 68 to 70
